Experiments:
Type in all cases: cell-based
human naïve CD4 T cells [1] = experiment: BCL6 intranuclear expression by FACS on in vitro differentiated cells; settings: for induction of Bcl6+CXCR5+ cells: titration with or without IL-12 (FIG. 11)
Method: (§1) For surface staining, primary-staining panels used for phenotypic analysis or for cell sorting known in the art were used. For the intranuclear staining: cells were treated with the FoxP3 Fixation/Permeabilization kit (eBioscience) and stained in Permeabilization buffer (eBioscience). For cytokine staining: day 3 or day 5 in vitro differentiated cells (specified in the main text or in figure legends) cells were stimulated for 5 hours at 37° C. with Phorbol 12-myristate 13-acetate (PMA, 25 ng/ml) and Ionomycin (1 μg/ml) in the presence of Brefeldin A (5 μg/ml). Cells were fixed with PBS 2% FBS, 1% PFA and permeabilized with PBS 2% FBS, 0.5% Saponin (from quillaja bark, Sigma-Aldrich). Samples were analyzed on a LSR Fortessa Cell Analyzer (BD, Bioscience). Flow cytometry data were analyzed with FlowJo (Tree Star). For cell sorting, cells were sorted using sorted using a FACS Aria (BD, Bioscience).
Unless differently specified, naïve CD4^+ T cells were enriched from PBMCs by magnetic bead negative selection with the Naïve CD4^+ T Cell Isolation Kit (Stem Cell Technologies). Purity (CD4^+CD45RA^+) was 90% or higher. Cells (7.5×10^4 cells/well) were activated by Dynabeads Human T-Activator CD3/CD28 (2 μl/well, Life Technologies) and cultured with recombinant human/mouse/rat activin A (50 ng/ml or 100 ng/ml), recombinant human IL-12 (5 ng/ml), recombinant human TGFβ (1 ng/ml), recombinant human IL-23 (10 ng/ml) or recombinant human IL-35 (10 ng/ml) in the presence of and recombinant human IL-7 (4 ng/ml) in AIM-V medium (Life Technologies). All cytokines were from R&D System and Peprotech. The 14 kDa mature human beta A chain of human activin A shares 100% amino acid sequence identity with bovine, feline, mouse, porcine, and rat beta A. Phenotype was quantified after 3 or 5 days, as specified in the main text of Figure legends. Similar results were obtained when using Treg-depleted FACS sorted naïve CD4 T cells, in which cells were sorted from total PBMCs by flow cytometry as CD19^−CD8^−CD14^−CD16^− CD4^+CD45RO^−CD25^− cells. For experiments quantifying supernatant CXCL13 concentration, cells were activated by plate-bound anti-human CD3 (5 μg/ml, BD) and ICOS-L (5 μg/ml, recombinant human B7-H2, R&D). CXCL13 concentrations were determined via human CXCL13 DuoSet ELISA (R&D) on supernatants harvested after 5 days of in vitro culture. For blocking experiments, cells were cultured with anti-activin A blocking mAb (5 μg/ml, clone 69403, R&D), anti-TGFβ mAb (100 μg/ml, clone 1D11.16.8, BioXcell), or equivalent concentration of mouse IgG1 isotype mAb (BioXcell). For blockade of IL-2, cells were cultured with anti-IL-2 blocking mAb (10 μg/ml, clone 5334, R&D) or mouse IgG1 isotype mAb (BioXcell).

human naïve CD4 T cells [2] = experiment: RNA sequencing and GSEA of in vitro differentiated CD4 T cells; settings: for genes differentially upregulated, activin A+IL-12 versus TGFβ+IL-12: each cytokine combined with IL-12, RNA-seq day 3; for expression of bona fide GC Tfh signature genes (GSEA): activin A or activin A+IL-12 versus beads, IL-12
Method: Differentiation of naïve CD4^+ T cells with activin A and/or IL-12 was described above. Naïve CD4 T cells from 4 or more donors were cultured with the following conditions: beads only (beads), IL-12, activin A (100 ng/ml), activin A (100 ng/ml)+IL-12, TGFβ, TGFβ+IL-12. After 3 days of in vitro culture, live CD4^+ T cells were sorted by FACS. Total RNA was purified using miRNAeasy Mini kit (Qiagen). Standard quality control steps were included to determine total RNA quality using Agilent Bioanalyzer (RNA integrity number (RIN)>8.5; Agilent RNA 6000 Nano Kit, USA) and quantity using a nanoliter spectrophotometer (Nanodrop, Thermofisher, USA). For every sample, 500 ng of purified total RNA was prepared into mRNA libraries, according to manufacturer's instructions, using the Truseq Stranded mRNA Library Prep Kit (Illumina, RS-122-2103). The resulting libraries were deep sequenced, using the Illumina HiSeq2500 system in rapid run mode, to obtain between 6 to 7 millions of 50-bp length single-end reads per library.
The single-end reads that passed Illumina filters were filtered for reads aligning to tRNA, rRNA, adapter sequences, and spike-in controls. The reads were then aligned to UCSC hg19 reference genome using TopHat^55(v 1.4.1). DUST scores were calculated with PRINSEQ Lite^56 (v 0.20.3) and low-complexity reads (DUST >4) were removed from the BAM files. The alignment results were parsed via the SAMtools^57 to generate SAM files. Read counts to each genomic feature were obtained with the htseq-count program^58 (v 0.6.0) using the “union” option. After removing absent features (zero counts in all samples), the raw counts were converted to RPKM value followed by quantile normalization via R library ‘aroma.light’ ^59. Then the quantile normalized RPKM values were filtered by setting a cutoff value of 1 and analyzed with the Multiplot module in GenePattern suite (http://www.broadinstitute.org/cancer/software/genepattern/) to generate the Volcano, Heatmap and Expression plots. Meanwhile the filtered raw counts were imported to R/Bioconductor package DESeq2^60 (v 3.1) to normalize counts and identify differentially expressed genes among conditions.
The tonsil GC Tfh gene set was generated from previously published microarray data^38 and defined by genes with more than two-fold higher expression in GC-Tfh cells (CD4^+CD45RO^+PD-1^hiCXCR5^hi) compared to non-Tfh cells (CD4^+CD45RO^+PD-1^−CXCR5^−). […] The signal-to-noise metric was used for ranking the genes in the RNA-seq expression datasets and 10^5 cycles of permutations on the phenotype labels were performed to determine the normalized enrichment score (NES).

human naïve CD4 T cells [3] = experiment: Intracellular cytokine staining after PMA/Ionomycin restimulation
Method: as §1

Substance | induction of Bcl6+CXCR5+ cells (human naïve CD4 T cells [1]) | genes differentially upregulated, activin A+IL-12 versus TGFβ+IL-12 (human naïve CD4 T cells [2]) [genes] | Bcl6 protein expression (human naïve CD4 T cells [1]; activin A with or without IL-12, FACS intranuclear staining (FIG. 8C)) | BCL6 expression (human naïve CD4 T cells [1]; activin A+IL-12, day 5 (FIG. 2F)) | regulation of Tfh-signature genes LIF, LTA, PDCD1, TNF (human naïve CD4 T cells [2]; RNA-seq day 3, heat-map (FIG. 2K)) | expression of bona fide GC Tfh signature genes (GSEA) (human naïve CD4 T cells [2]) | expression of bona fide GC Tfh signature genes (GSEA) (human naïve CD4 T cells [2]; listed as Activin A) | genes selectively upregulated versus beads only (human naïve CD4 T cells [2]; activin A+IL-12, RNA-seq day 3) [genes] | genes suppressed versus beads only (human naïve CD4 T cells [2]; activin A+IL-12, RNA-seq day 3) [genes] | IL-21 production (human naïve CD4 T cells [3]; cells cultured with activin A+IL-12, PMA/Ionomycin re-stimulation) | TNFα and LTα protein expression (human naïve CD4 T cells [3]; day 3 cells, PMA/Ionomycin restimulation)
TGFβ | No detectable induction of Bcl6 | 45 |  |  |  |  |  |  |  |  | 
activin A: commercial recombinant cytokine, homodimer of the INHBA gene product (inhibin beta A) | No detectable induction of Bcl6 | 35 | significant expression of Bcl6, particularly when combined with IL-12 | a fraction of CD4 T cells differentiated with activin A+IL-12 increased expression of BCL6 | major factor regulating several Tfh-signature genes such as LIF, LTA, PDCD1, and TNF | imprinted with bona fide GC Tfh signature genes | contributed more than IL-12 to driving expression of bona fide GC Tfh associated genes | 116 | 60 | retained full IL-21 production potential | superior ability of CD4 T cells cultured with activin A to express TNFα and LTα proteins

Reference: patent US20180111991A1, “MODULATORS OF ACTIVIN AND METHODS FOR MODULATING IMMUNE RESPONSES AND T FOLLICULAR HELPER CELLS” (LA JOLLA INSTITUTE FOR ALLERGY AND IMMUNOLOGY, priority 2014, published 2018)
